Key:
[1] = molecular target: T1, Melanocortin receptor 3 (Homo sapiens, UniProt P41968); experiment: Displacement of [125I]NDP-alpha-MSH from human MC3R expressed in HEK293 cells by competitive binding assay; type: cell-based
[2] = molecular target: T2, Melanocyte-stimulating hormone receptor (Homo sapiens, UniProt Q01726); experiment: Agonist activity at human MC1R expressed in HEK293 cells assessed as maximal intracellular cAMP accumulation at 10 uM by fluorescence based analysis relative to control; type: functional, cell-based; details: filed as agonist
Target sequence in this assay (Q01726 whole entry, looked up): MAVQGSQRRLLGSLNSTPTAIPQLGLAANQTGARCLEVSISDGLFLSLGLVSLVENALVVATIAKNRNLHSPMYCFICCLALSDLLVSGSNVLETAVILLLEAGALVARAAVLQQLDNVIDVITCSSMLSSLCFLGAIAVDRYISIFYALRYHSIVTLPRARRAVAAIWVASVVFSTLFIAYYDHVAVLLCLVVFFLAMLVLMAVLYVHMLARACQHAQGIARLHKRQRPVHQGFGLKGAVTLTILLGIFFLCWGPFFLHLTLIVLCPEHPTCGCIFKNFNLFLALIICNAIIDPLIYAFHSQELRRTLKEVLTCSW

[3] = molecular target: T1, Melanocortin receptor 3; experiment: Agonist activity at human MC3R expressed in HEK293 cells assessed as maximal intracellular cAMP accumulation at 10 uM by fluorescence based analysis relative to control; type: functional, cell-based; details: filed as agonist
[4] = molecular target: T2, Melanocyte-stimulating hormone receptor; experiment: Agonist activity at human MC1R expressed in HEK293 cells assessed as maximal intracellular cAMP accumulation by fluorescence based analysis; type: functional, cell-based
Target sequence in this assay (Q01726 whole entry): as the sequence (Q01726 whole entry, looked up) above

[5] = molecular target: T3, Melanocortin receptor 4 (Homo sapiens, UniProt P32245); experiment: Displacement of [125I]NDP-alpha-MSH from human MC4R expressed in HEK293 cells by competitive binding assay; type: cell-based
[6] = molecular target: T1, Melanocortin receptor 3; experiment: Agonist activity at human MC3R expressed in HEK293 cells assessed as maximal intracellular cAMP accumulation by fluorescence based analysis; type: functional, cell-based
[7] = molecular target: T4, Melanocortin receptor 5 (Homo sapiens, UniProt P33032); experiment: Displacement of [125I]NDP-alpha-MSH from human MC5R expressed in HEK293 cells by competitive binding assay; type: cell-based
[8] = molecular target: T4, Melanocortin receptor 5; experiment: Agonist activity at human MC5R expressed in HEK293 cells assessed as maximal intracellular cAMP accumulation by fluorescence based analysis; type: functional, cell-based
[9] = molecular target: T3, Melanocortin receptor 4; experiment: Agonist activity at human MC4R expressed in HEK293 cells assessed as maximal intracellular cAMP accumulation by fluorescence based analysis; type: functional, cell-based
[10] = molecular target: T4, Melanocortin receptor 5; experiment: Agonist activity at human MC5R expressed in HEK293 cells assessed as maximal intracellular cAMP accumulation at 10 uM by fluorescence based analysis relative to control; type: functional, cell-based; details: filed as agonist
[11] = molecular target: T2, Melanocyte-stimulating hormone receptor; experiment: Displacement of [125I]NDP-alpha-MSH from human MC1R expressed in HEK293 cells by competitive binding assay; type: cell-based
Target sequence in this assay (Q01726 whole entry): as the sequence (Q01726 whole entry, looked up) above

[12] = molecular target: T4, Melanocortin receptor 5; experiment: Agonist activity at human MC5R expressed in HEK293 cells assessed as cAMP accumulation at 10 uM by fluorescence based analysis relative to control; type: functional, cell-based

T3 sequence (P32245 whole entry): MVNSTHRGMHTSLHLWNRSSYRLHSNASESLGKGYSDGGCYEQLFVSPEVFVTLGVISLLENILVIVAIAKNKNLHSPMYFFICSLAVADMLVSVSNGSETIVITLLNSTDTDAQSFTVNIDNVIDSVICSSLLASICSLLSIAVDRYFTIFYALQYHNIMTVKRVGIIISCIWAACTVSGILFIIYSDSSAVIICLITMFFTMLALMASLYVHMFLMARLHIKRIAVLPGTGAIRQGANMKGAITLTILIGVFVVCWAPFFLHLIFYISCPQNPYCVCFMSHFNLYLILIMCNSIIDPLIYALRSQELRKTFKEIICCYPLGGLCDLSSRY
T1 sequence (P41968 whole entry): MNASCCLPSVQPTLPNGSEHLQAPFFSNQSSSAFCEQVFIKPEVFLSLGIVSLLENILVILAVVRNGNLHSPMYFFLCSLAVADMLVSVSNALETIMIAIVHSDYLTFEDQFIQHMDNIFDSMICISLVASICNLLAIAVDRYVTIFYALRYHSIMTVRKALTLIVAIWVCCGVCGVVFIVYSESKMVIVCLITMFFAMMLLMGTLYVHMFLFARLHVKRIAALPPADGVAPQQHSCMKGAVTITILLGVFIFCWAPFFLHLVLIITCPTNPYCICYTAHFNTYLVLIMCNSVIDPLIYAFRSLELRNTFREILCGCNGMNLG
T4 sequence (P33032 whole entry): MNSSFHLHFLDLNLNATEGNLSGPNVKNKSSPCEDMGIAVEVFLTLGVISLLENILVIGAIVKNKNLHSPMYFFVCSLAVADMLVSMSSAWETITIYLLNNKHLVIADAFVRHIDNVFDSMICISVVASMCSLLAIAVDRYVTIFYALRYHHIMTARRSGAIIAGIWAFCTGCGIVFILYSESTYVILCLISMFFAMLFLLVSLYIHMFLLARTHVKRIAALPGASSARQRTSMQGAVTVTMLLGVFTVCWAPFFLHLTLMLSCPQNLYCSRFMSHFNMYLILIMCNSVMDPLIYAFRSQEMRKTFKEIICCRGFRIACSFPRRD

Row | IC50 [1] [nM] | Activity [2] [%] | Activity [3] [%] | EC50 [4] [nM] | IC50 [5] [nM] | EC50 [6] [nM] | IC50 [7] [nM] | EC50 [8] [nM] | EC50 [9] [nM] | Activity [10] [%] | IC50 [11] [nM] | Activity [12] [%] | Compound
1 | 302 | 100 | 100 | 107 | 9.1 | > 1000 | 78 | > 1000 | 360 | 100 | 275 | – | CCCC[C@H](NC(C)=O)C(=O)N[C@H]1CSCc2ccccc2CSC[C@@H](C(N)=O)NC(=O)[C@H](Cc2c[nH]c3ccccc23)NC(=O)[C@H](CCCNC(=N)N)NC(=O)[C@@H](Cc2ccccc2)NC(=O)[C@H](Cc2c[nH]cn2)NC1=O
2 | 244 | 100 | 100 | > 1000 | 628 | 9.4 | 93.5 | 126 | 618 | 100 | 70 | – | CCCC[C@H](NC(C)=O)C(=O)N[C@@H]1C(=O)N[C@@H](Cc2c[nH]cn2)C(=O)N[C@H](Cc2ccccc2)C(=O)N[C@@H](CCCNC(=N)N)C(=O)N[C@@H](Cc2c[nH]c3ccccc23)C(=O)N[C@H](C(N)=O)CSCc2cccc(c2)CSC1(C)C
3 | 64 | 100 | 100 | 3 | 57.2 | 246 | 69 | 48 | 219 | 100 | 19 | – | CCCC[C@H](NC(C)=O)C(=O)N[C@H]1CSCc2ccc(cc2)CSC(C)(C)[C@@H](C(N)=O)NC(=O)[C@H](Cc2c[nH]c3ccccc23)NC(=O)[C@H](CCCNC(=N)N)NC(=O)[C@@H](Cc2ccccc2)NC(=O)[C@H](Cc2c[nH]cn2)NC1=O
4 | > 1000 | – | – | – | > 1000 | – | 422 | – | – | – | 227 | – | CCCC[C@H](NC(C)=O)C(=O)N[C@@H]1C(=O)N[C@@H](Cc2c[nH]cn2)C(=O)N[C@H](Cc2ccccc2)C(=O)N[C@@H](CCCNC(=N)N)C(=O)N[C@@H](Cc2c[nH]c3ccccc23)C(=O)N[C@H](C(N)=O)CSCc2ccc(cc2)CSC1(C)C
5 | 71 | – | – | 6.5 | – | 435 | 30 | > 1000 | – | – | 9 | – | CCCC[C@H](NC(C)=O)C(=O)N[C@H]1CSCc2cccc(c2)CSC(C)(C)[C@@H](C(N)=O)NC(=O)[C@H](Cc2c[nH]c3ccccc23)NC(=O)[C@H](CCCNC(=N)N)NC(=O)[C@@H](Cc2ccccc2)NC(=O)[C@H](Cc2c[nH]cn2)NC1=O
6 | 74 | 100 | 100 | 6.1 | 45.8 | > 1000 | 46 | – | > 1000 | 100 | 44 | 0 | CCCC[C@H](NC(C)=O)C(=O)N[C@H]1CSCc2ccccc2CSC(C)(C)[C@@H](C(N)=O)NC(=O)[C@H](Cc2c[nH]c3ccccc23)NC(=O)[C@H](CCCNC(=N)N)NC(=O)[C@@H](Cc2ccccc2)NC(=O)[C@H](Cc2c[nH]cn2)NC1=O
7 | 32 | – | – | 3 | – | 902 | 4.4 | > 1000 | – | – | 3.5 | – | CCCC[C@H](NC(C)=O)C(=O)N[C@H]1CSCc2cccc(c2)CSC[C@@H](C(N)=O)NC(=O)[C@H](Cc2c[nH]c3ccccc23)NC(=O)[C@H](CCCNC(=N)N)NC(=O)[C@@H](Cc2ccccc2)NC(=O)[C@H](Cc2c[nH]cn2)NC1=O
8 | 450 | – | – | – | > 1000 | – | 172 | – | – | – | 450 | – | CCCC[C@H](NC(C)=O)C(=O)N[C@@H]1C(=O)N[C@@H](Cc2c[nH]cn2)C(=O)N[C@H](Cc2ccccc2)C(=O)N[C@@H](CCCNC(=N)N)C(=O)N[C@@H](Cc2c[nH]c3ccccc23)C(=O)N[C@H](C(N)=O)C(C)(C)SCc2cccc(c2)CSC1(C)C
9 | 24 | – | – | 4 | – | 645 | 2 | > 1000 | – | – | 7.3 | – | CCCC[C@H](NC(C)=O)C(=O)N[C@H]1CSCc2ccc(cc2)CSC[C@@H](C(N)=O)NC(=O)[C@H](Cc2c[nH]c3ccccc23)NC(=O)[C@H](CCCNC(=N)N)NC(=O)[C@@H](Cc2ccccc2)NC(=O)[C@H](Cc2c[nH]cn2)NC1=O
10 | > 1000 | – | – | – | > 1000 | – | > 1000 | – | – | – | > 1000 | – | CCCC[C@H](NC(C)=O)C(=O)N[C@@H]1C(=O)N[C@@H](Cc2c[nH]cn2)C(=O)N[C@H](Cc2ccccc2)C(=O)N[C@@H](CCCNC(=N)N)C(=O)N[C@@H](Cc2c[nH]c3ccccc23)C(=O)N[C@H](C(N)=O)C(C)(C)SCc2ccc(cc2)CSC1(C)C
11 | 452 | – | – | – | > 1000 | – | 507 | – | – | – | 553 | – | CCCC[C@H](NC(C)=O)C(=O)N[C@@H]1C(=O)N[C@@H](Cc2c[nH]cn2)C(=O)N[C@H](Cc2ccccc2)C(=O)N[C@@H](CCCNC(=N)N)C(=O)N[C@@H](Cc2c[nH]c3ccccc23)C(=O)N[C@H](C(N)=O)C(C)(C)SCc2ccccc2CSC1(C)C
12 | 222 | – | – | – | 619 | – | 157 | – | – | – | 150 | – | CCCC[C@H](NC(C)=O)C(=O)N[C@@H]1C(=O)N[C@@H](Cc2c[nH]cn2)C(=O)N[C@H](Cc2ccccc2)C(=O)N[C@@H](CCCNC(=N)N)C(=O)N[C@@H](Cc2c[nH]c3ccccc23)C(=O)N[C@H](C(N)=O)CSCc2ccccc2CSC1(C)C
